Type in all cases: functional, cell-based
Assay [1] has as its system PC-3. The assay can be described thus: Antitumor activity against human PC3 cells by MTT method.
In assay [2] the test system is Bcap37. Briefly: Antitumor activity against human Bcap37 cells by MTT method. For orientation: Formazan colour is commonly taken as a measure of viable cells.
The subject of assay [3] is BGC-823. The assay can be described thus: Antitumor activity against human BGC823 cells by MTT method.

Structures are written as SMILES.

Turning to `COc1cc2ncnc(Nc3cccc(Br)c3)c2cc1OC`, the IC50 stood at 13.7 µM in assay [1], 8.9 µM in assay [2] and 6.9 µM in assay [3].
In the same order, the values of `COc1cc(-c2nnc(Sc3ncnc4ccccc34)o2)cc(OC)c1OC` are 5.6 µM, 23.4 µM and 34.5 µM.
In the case of `COc1cc(-c2nnc(Sc3ncnc4c(OC)c(OC)c(OC)cc34)o2)cc(OC)c1OC`, the IC50 in assay [1] amounted to 1.8 µM; in assay [2] it was 20.9 µM; in assay [3] it was 39 µM.
For the molecule `COc1cc(-c2nnc(Sc3ncnc4ccc(I)cc34)o2)cc(OC)c1OC`, the IC50 in assay [1] came to 8.9 µM; in assay [2] it was 31 µM; in assay [3] it was 28.9 µM.
In the same order, the values of `C=CCSc1ncnc2ccc(I)cc12` are 28.8 µM, 39.1 µM and 33.2 µM.
The matching figures for `COc1cc(-c2nnc(Sc3ncnc4c(OC)c(OC)c(OC)cc34)s2)cc(OC)c1OC`: 8.7 µM, 34.7 µM and 31.2 µM.
In the case of `CCCSc1ncnc2ccc(I)cc12`, the IC50 was determined as 40.9 µM in assay [1], 42.1 µM in assay [2] and 29 µM in assay [3].
`COc1cc(-c2nnc(Sc3ncnc4ccccc34)s2)cc(OC)c1OC`: the IC50 in assay [1] was found to be 19 µM; in assay [2] it was 50.9 µM; in assay [3], 61.2 µM.
On to `CCSc1ncnc2ccc(I)cc12`, for which the IC50 came out at 38.9 µM in assay [1], 39 µM in assay [2] and 31.1 µM in assay [3].
With `COc1cc(-c2nnc(Sc3ncnc4ccc(I)cc34)s2)cc(OC)c1OC`, the IC50 in assay [1] was determined as 12.2 µM; in assay [2], 21 µM; in assay [3] it was 19 µM.
With `COc1cccc(Sc2ncnc3c(OC)c(OC)c(OC)cc23)c1`, the IC50 in assay [1] stood at 8.1 µM; in assay [2] it was 45.6 µM; in assay [3] it was 53.2 µM.
For `CCCCSc1ncnc2ccc(I)cc12`, the IC50 came to 32.1 µM in assay [1], 31 µM in assay [2] and 29 µM in assay [3].
Turning to `COc1cccc(Sc2ncnc3ccccc23)c1`, the IC50 in assay [1] turned out to be 23.1 µM; in assay [2] it was 56.7 µM; in assay [3], 45.6 µM.
With `C=CCSc1ncnc2ccccc12`, the figures for the IC50 in assay [1], in assay [2] and in assay [3] were 48 µM, 67.9 µM and 78.1 µM, respectively.

By IC50 is commonly meant the concentration that inhibits the measured activity by half. High values mean a need for much substance, low ones inhibition by little substance.

The values are drawn from ChEMBL document CHEMBL1147840, “Synthesis and bioactivity of 4-alkyl(aryl)thioquinazoline derivatives” (Bioorg Med Chem Lett, 2007).
